Measured values as given in ChEMBL document CHEMBL1157539, “Thousands of chemical starting points for antimalarial lead identification” (Nature, 2010).

Test system: Plasmodium falciparum
Experiment: GSK_TCMDC: Inhibition of Plasmodium falciparum 3D7 in whole erythrocytes, using parasite LDH activity as an index of growth.
Type: functional, organism-based
Conditions: Plasmodium falciparum, 3D7

| Compound | XC50 [nM] |
| --- | --- |
| O=C(Nc1ccc([N+](=O)[O-])cc1)c1nn(-c2ccccc2)cc1/N=C/c1cccc(O)c1 | 890 |
| CN(C)Cc1ccc(-c2cc3c(Nc4ccc(OCc5cccc(F)c5)c(Cl)c4)ncnc3s2)[nH]1 | 824 |
| O=C(Nc1cccc(CN2CCCN(Cc3ccc(O)cc3)CC2)c1)c1ccc(Cl)c(Cl)c1 | 259 |
| CCCC(C)N(Cc1ccc(C(C)(C)C)cc1)C(=O)c1ccc(OC)cc1 (stereo unspecified) | 111 |
| COc1cccc(-n2ncc3c(N/N=C/c4ccc(CN(C)CCN(C)C)cc4)ncnc32)c1 | 893 |
| O=C(c1ccc(F)c(F)c1)N1CCOC(CCN2CCC(c3ccccc3)CC2)(c2ccc(Cl)c(Cl)c2)C1 (stereo unspecified) | 1040 |
| COc1ccc(CNCc2cccc(-c3ccc(-c4nc5ccccc5[nH]4)s3)c2)cc1 | 816 |
| CC(=O)N(C)c1cccc(C(=O)Nc2cccc(-c3cccc(-c4nc5cc(C(F)(F)F)ccc5[nH]4)c3)c2)c1 | 236 |
| CCOC(=O)c1ccc(NC(=O)Nc2cccc(-c3ccc(-c4nc5cc(C(F)(F)F)ccc5[nH]4)cc3)c2)cc1 | 212 |
| CN1CCC(Oc2cc(NC(=O)Nc3ccc(-c4ccncc4)c(Cl)c3)ccc2Cl)CC1 | 530 |
| c1ccc(Oc2ccc(Nc3ccnc(Nc4ccc5cn[nH]c5c4)n3)cc2)cc1 | 733 |
| COc1ccc(C(=O)Nc2ccc3nc(N4CCCCC4)cc(C)c3c2)cc1OC | 994 |
| O=C(CCCCCNC(=O)c1ccc(O)c(-c2ccc(Cl)c(Cl)c2)c1)NC1CCCCCC1 | 947 |
| Cc1ccnc(NC(=O)c2cc(-c3cccc([N+](=O)[O-])c3)nc3onc(C)c23)c1 | 888 |
| c1ccc(Oc2ccc(Nc3ccnc4c(-c5ccccn5)cccc34)cc2)cc1 | 987 |
| CCCCNC[C@@H](O)[C@H](Cc1ccccc1)NC(=O)c1cc2c3c(c1)c(CC)cn3CCS(=O)(=O)N2C | 196 |
| COc1cc2c(cc1S(=O)(=O)c1ccc(NC(=O)c3cc4ccccc4s3)cc1)CCN(C)CC2 | 837 |
| CCc1ccc(CN2CCC(NC(=O)c3ccc(-c4ccccc4F)s3)CC2)cc1 | 1490 |
| Oc1ccccc1CCNCC1CCc2ccccc2C1 (stereo unspecified) | 689 |
| O=C(Cc1ccc(Cl)cc1)Nc1cc(Cl)ccc1Cn1cnc(N2CCNCC2)cc1=O | 998 |
| Cc1cc(=NN=CC=Cc2ccccc2)c2ccccc2[nH]1 | 757 |
| N=C(N)NCCCN(Cc1ccccc1)c1ccc(Cl)cc1 | 564 |
| Cc1[nH]c(C)c(-c2ccc(-c3ccccc3)nc2)c(=O)c1Br | 661 |
| O=C(Nc1ccc(-c2nc3ccccc3[nH]2)cc1)c1ccc(S(=O)(=O)N2CCCCC2)cc1 | 749 |

| Compound | XC50 [nM] |
| --- | --- |
| O=C(Nc1ccc(Cl)c(C(F)(F)F)c1)Nc1ccc(Cl)c(C(F)(F)F)c1 | 768 |
| O=C(Nc1cccc(CN2CCCN(Cc3ccsc3)CC2)c1)c1ccc(Cl)c(Cl)c1 | 885 |
| O=C(NCC1CCN(Cc2ccsc2)C1)c1cc(-c2cccc(C(F)(F)F)c2)cs1 (stereo unspecified) | 700 |
| CCN(CC)CCCC(C)Nc1ccnc2[nH]c3ccccc3c12 (stereo unspecified) | 1770 |
| CC(C)c1ccc2c(c1)c(SC(C)(C)C)c(CC(C)(C)C#N)n2Cc1ccc(Cl)cc1 | 225 |
| O=C(c1cc(-c2ccco2)n[nH]1)N1CCN(S(=O)(=O)c2ccc(Br)cc2)CC1 | 497 |
| Fc1cccc(Nc2nc(NCc3ccc(OCc4ccccc4)cc3)nc(Nc3cccc(F)c3)n2)c1 | 1180 |
| c1ccc(CN2CCC(NCc3ccc(-c4ccc(CNCc5cccnc5)cn4)cc3)CC2)cc1 | 879 |
| O=C(NCC1CCN(CC2CCCCC2)C1)c1cc(-c2cccc(Cl)c2)cs1 (stereo unspecified) | 1090 |
| OC1CCCN(Cc2ccc(-c3cccc(-c4nc5cc(F)ccc5[nH]4)c3)cc2)C1 (stereo unspecified) | 868 |
| CCn1c(-c2nc(-c3ccnc(N4CCN(C)CC4)c3)cnc2N)nc2cc(S(C)(=O)=O)ccc21 | 815 |
| O=C(/C=C/c1ccc(Cl)c(Cl)c1)NCCCCCN1CCCN(C(=O)Nc2cccc(F)c2)CC1 | 757 |
| O=S(=O)(/C=C/c1ccccc1)N(Cc1ccc(-c2ccc(CNCCOc3ccccc3)cc2)cc1)CC1CCCCN1 (stereo unspecified) | 744 |
| CS(=O)(=O)CCNC(=O)c1ccc(-c2cc3c(Nc4ccc5c(cnn5Cc5ccccc5)c4)ncnc3cn2)o1 | 995 |
| CC(=NNC(S)=Nc1ccccc1Cl)c1ccccn1 | 80.3 |
| Cc1ccc(F)c(NC(=O)c2c(-c3c(F)cccc3Cl)noc2C)c1 | 934 |
| N#Cc1c(N2CCN(c3ccc(F)cc3)CC2)nc(N)c2c(N)nc3c(c12)CC(=O)N3C1CC1 | 837 |
| COc1cc2nc(Nc3ccc4c(ccn4Cc4ccccc4)c3)nc(Nc3ccc4c(ccn4Cc4ccccc4)c3)c2cc1OC | 647 |
| CCCCCCNC(=N)c1ccc2[nH]c(-c3ccc(O)cc3)nc2c1 | 190 |
| CCCCCc1cc(O)c2c(c1)OC(C)(C)CC2C1=CCN(Cc2cnc3ccccc3c2)CC1 (stereo unspecified) | 276 |
| CC[C@H](NC(=O)c1ccc(NC(=O)OC(C)(C)C)cc1)C(=O)N[C@@H](CO)C(=O)NCCCCc1ccccc1 | 830 |
| COc1cc(Nc2ccnc3cc(-c4ccccn4)ccc23)cc(OC)c1OC | 912 |
| COCCCNC(=O)c1ccc(O)c(-c2cc(Cl)cc(Cl)c2)c1 | 923 |
| Cc1ccc(C)c2c1[nH]c1ccc(C3=NCCN3)cc12 | 497 |

| Compound | XC50 [nM] |
| --- | --- |
| CC(=O)Nc1ncc(C(=O)Nc2ccc(-c3cccc(-c4nc5cc(C(F)(F)F)ccc5[nH]4)c3)cc2)s1 | 260 |
| COc1cc(NC2=NS(=O)(=O)c3cc(Cl)ccc3N2C)cc(OC)c1OC | 420 |
| COc1cc2nc(NCCc3ccccc3)nc(N(C)Cc3ccccc3)c2cc1OC | 831 |
| CC(Cc1ccc(Oc2ccccc2)cc1)NCC(O)c1cccc(C(F)(F)F)c1 (stereo unspecified) | 674 |
| CN1CCOc2ccc(Nc3nnc(-c4cccc(-c5cccnc5)c4)o3)cc2C1 | 104 |
| COc1cc2c(cc1OC)C(C(=O)Nc1ccc(C(F)(F)F)cc1)C(c1cccs1)N(C)C2=O (stereo unspecified) | 158 |
| Oc1ccccc1CN1CCC(CCOC(c2ccccc2)c2ccc(Cl)cc2)CC1 (stereo unspecified) | 743 |
| c1ccc2c(c1)CN(Cc1cc3ccccc3[nH]1)CC1(CCN(Cc3c[nH]c4cnccc34)CC1)O2 | 306 |
| CCCC(=O)Nc1ccc(Nc2nc(C)cc(N3CCCC3)n2)cc1 | 1490 |
| CC(C)c1cc(N)c2cc(NC(=O)COCC(=O)Nc3ccc4nc(C(C)C)cc(N)c4c3)ccc2n1 | 216 |
| CCCCCCSc1nnc(COc2cccc3ccccc23)n1-c1ccc(OC)cc1 | 45.2 |
| COc1cc(Nc2nccc(N3CCC(NC(=O)c4cc5ccccc5s4)C3)n2)cc(OC)c1OC (stereo unspecified) | 786 |
| O=C(COc1ccc(F)cc1)NC1CCN(c2ccnc3cc(Cl)ccc23)C1 (stereo unspecified) | 265 |
| CCOc1ccc2[nH]c(C)cc(=NN=Cc3ccccc3F)c2c1 | 738 |
| COc1ccc2nccc([C@@H](O)CN3CCC(NCCOc4cc(F)cc(F)c4)CC3)c2c1 | 155 |
| O=C(/C=C/c1cccc(Cl)c1)N1CCC(C(O)CN2CCC3(CC2)CN(C(=O)/C=C/c2cccc(Cl)c2)c2ccccc23)CC1 (stereo unspecified) | 892 |
| O=C(c1cc2c(s1)-c1cccc(Cl)c1SC2)N1CCN(c2ccncc2)CC1 | 1010 |
| CC(=O)N(C)c1cccc(C(=O)Nc2ccc(-c3cccc(-c4nc5cccc(C)c5[nH]4)c3)cc2)c1 | 651 |
| CCN(CC)CCOC(=O)C(OC)(c1ccccc1)c1ccccc1 | 1020 |
| O=C(Nc1cccc(C(F)(F)F)c1)Nc1cc(F)c(F)cc1Cl | 1960 |
| O=C(/C=C/c1ccccc1Cl)NC1CCC(CN2CCC(c3c[nH]c4ccncc34)CC2)CC1 (stereo unspecified) | 334 |
| COc1ccc2ncc(F)c(CCN3C4CCC3CC(NCc3ccc5c(c3)OCCO5)C4)c2n1 (stereo unspecified) | 225 |
| Fc1ccc(CNc2ncc(-c3ccsc3)c(-c3nccs3)n2)cc1 | 72.1 |
| N=C(N)Nc1nc(-c2cc(NC(=O)C(F)(F)F)cc([N+](=O)[O-])c2)cs1 | 781 |

| Compound | XC50 [nM] |
| --- | --- |
| O=C(NC1CC1)c1ccc2cc(C(=O)N3Cc4ccccc4C(c4ccccc4)C3)ccc2c1 (stereo unspecified) | 910 |
| O=c1ccc2ncc(Cl)c3c2n1CC3CN1CCC(NCc2cc3c(cn2)OCCO3)CC1 (stereo unspecified) | 961 |
| CS(=O)(=O)c1ccc(CNCc2cccc(-c3cccc(-c4nc5cc(C(F)(F)F)ccc5[nH]4)c3)c2)cc1 | 182 |
| COc1ccc(C(=O)Nc2ccc(Cl)cc2C(=O)Nc2ccncc2)cc1 | 822 |
| Cc1ccc(C(C(=O)Nc2ccc(N3CCNCC3)c(Cl)c2)c2ccccc2)cc1 (stereo unspecified) | 843 |
| Clc1cccnc1N1CCN(c2ncccc2Cl)CC1 | 147 |
| Cc1[nH]c2ccc(O)cc2c1C1CCN(CC2CCN(C(=O)/C=C/c3ccc(Cl)c(Cl)c3)CC2)CC1 | 998 |
| CCOC(=O)c1c(C)n(C2CCCCC2)c2cc(Br)c(O)cc12 | 815 |
| N#Cc1cc(C(=O)c2cc(Cl)ccc2O)cn(-c2cc(Cl)cc(Cl)c2)c1=O | 849 |
| CC(C)n1c(CC2CCN(CC3CCN(C(=O)/C=C/c4ccc(Cl)c(Cl)c4)CC3)CC2)nc2ccccc21 | 612 |
| Cc1cccc2nc(-c3cccc(-c4ccc(NC(=O)NCc5ccccc5)cc4)c3)[nH]c12 | 231 |
| Nc1ccnc(N2CCC(CCOc3cc(C(F)(F)F)nc4c(C(F)(F)F)cccc34)CC2)c1 | 792 |
| CCCCCCNC[C@@H](O)[C@H](Cc1ccccc1)NC(=O)c1cc(NCC)cc(N2CCCCS2(=O)=O)c1 | 995 |
| O=C(Nc1cccc(F)c1)N(Cc1ccc(-c2ccc(CN3CCNCC3)cc2)cc1)C1CCN(Cc2ccccc2)CC1 | 769 |
| FC(F)(F)c1ccc2[nH]c(-c3ccc(-c4cccc(CNCc5cnn(-c6ccccc6)n5)c4)s3)nc2c1 | 329 |
| CC(C)c1ccc(CN2CCC(CNC(=O)c3cc(-c4cccc(Cl)c4)cs3)C2)cc1 (stereo unspecified) | 752 |
| C=CC[C@H](C[C@H](O)[C@H](Cc1ccccc1)NC(=O)c1nn(-c2ccccc2)nc1C)C(=O)NC1CCCCC1 | 915 |
| CC(C)(C)c1cc(C(=O)N2CCN(c3ncccc3C(F)(F)F)CC2)n(Cc2ccccc2)n1 | 251 |
| CC[C@H](C)CNC(=O)c1ccc(-c2cccc(CN3CCC(N4CCCC4)CC3)c2)nc1 | 787 |
| Cc1cc(C)c(-c2n[nH]c3c2C(c2cccc(Cl)c2)N(Cc2ccco2)C3=O)c(O)c1 (stereo unspecified) | 1010 |
| COc1ccc(C(=O)Nc2ccc3oc(-c4ccc(C(F)(F)F)cc4)cc3c2)cc1CCCN(C)C | 698 |
| COc1ccccc1C1CC(c2ccc(C)cc2)=NN1C(=O)c1ccccc1 (stereo unspecified) | 886 |
| CC1CNC(c2cccc(NC(=O)Nc3cccc(C4=NC(C)CN4)c3)c2)=N1 (stereo unspecified) | 359 |
| CS(=O)(=O)N1CC2(CCN(CCC(NC(=O)Nc3ccccc3)c3ccc(Cl)c(Cl)c3)CC2)c2ccccc21 (stereo unspecified) | 823 |
